Reference: PMC3467217, “A Potent Class of GPR40 Full Agonists Engages the EnteroInsular Axis to Promote Glucose Control in Rodents” (PLoS ONE, 2012)

Target: PPAR delta (Homo sapiens, UniProt Q03181)
Experiment: PPAR-delta luciferase reporter assay
Assay type: cell-based
Conditions: concentrations up to 10 µM

Chain of PPAR delta (Q03181 whole entry): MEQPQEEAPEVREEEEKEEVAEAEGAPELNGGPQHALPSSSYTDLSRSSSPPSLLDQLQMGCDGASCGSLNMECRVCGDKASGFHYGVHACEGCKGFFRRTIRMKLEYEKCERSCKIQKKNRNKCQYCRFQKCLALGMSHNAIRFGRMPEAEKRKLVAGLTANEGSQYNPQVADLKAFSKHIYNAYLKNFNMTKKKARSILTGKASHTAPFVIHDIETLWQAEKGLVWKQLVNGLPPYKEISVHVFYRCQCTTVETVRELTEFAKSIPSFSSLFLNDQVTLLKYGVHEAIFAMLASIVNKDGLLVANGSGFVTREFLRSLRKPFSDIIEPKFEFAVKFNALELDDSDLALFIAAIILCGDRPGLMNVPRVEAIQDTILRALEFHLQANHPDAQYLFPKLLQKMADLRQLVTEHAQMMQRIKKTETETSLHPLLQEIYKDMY

- activation of PPAR delta: did not activate
SMILES: COc1ccc(F)c(-c2ccc(COc3cccc([C@@H](CC(=O)O)C4CC4)c3)cc2C2=CCCC2(C)C)c1 [AM-1638]
